# Measured values: US9975906B2, “Tricyclic heterocycle derivatives having HIV replication inhibitory effect” (Shionogi & Co., Ltd., priority 2014, dated 2018)
# Tested on: HIV (HTLV-IIIB strain)
# Experiment: HIV Replication Inhibition Assay
# Assay type: cell-based
# Details: Human immunodeficiency virus 1, MT4, 96 h, MT-4 cells, cultured four days, MTT, concentration at which cell cytotoxicity by virus is inhibited 50%
# Method: HIV (HTLV-IIIB strain) persistent infected human T cell strain Molt-4 clone 8 was cultured in 10% Fetal Bovine Serum-containing RPMI-1640 medium and the supernatant was filtered, then the virus titer was measured and the solution was stored at −80° C. Each anti-human immunodeficiency virus active substance was diluted with the above cultured medium to the designated concentration, which was dispensed into 96 well micro plate by 50 μL. Next, a MT-4 cell suspended liquid was dispensed by 100 μL (2.5×10^4 cells), then the above HIV-containing supernatant diluted with the above cultured medium was added thereto by 50 μl (60 pfu (plaque forming unit)).
# The obtained mixture was cultured at 37° C. in CO2 incubator for four days, then 3-(4,5-dimethylthiazole-2-yl)-2,5-diphenyltetrazolynium bromide (MTT) 5 mg/mL in PBS was added to each well by 30 μL, followed by 1 hr-cultivation. In this step, as formazan was precipitated by reduction of MTT in living cells, the cell supernatant was removed from all was by 150 μL, then a 150 μL of solution (10% Triton X-100 and 0.4% (v/v)-HCl containing isopropanol) was added thereto, followed by shaking with a plate mixer, to elute formazan. The formazan was measured with a microreader at OD: 560 nm and 690 nm (reference wavelength) and the result was compared with the reference. EC50 means the compound concentration at which cell cytotoxicity by virus is inhibited 50%.
row,Compound,EC50
1,Cc1ccc(-c2c([C@H](OC(C)(C)C)C(=O)O)c(C)c3c4c2cc(-c2ccnc(-c5ccc6c(cnn6C)c5)c2)n4CS(=O)(=O)N3C)cc1 [Compound I-029],2.4 nM
2,Cc1c([C@H](OC(C)(C)C)C(=O)O)c(C2=CCC(C)(C)CC2)c2cc(-c3ccnc(-c4ccc5c(cnn5C)c4)c3)n3c2c1N(S(C)(=O)=O)CC3 [Compound I-015],4 nM
3,Cc1ccc(-c2c(C(OC(C)(C)C)C(=O)O)c(C)c3c4c2cc(-c2ccnc(-c5ccc6c(cnn6C)c5)c2)n4CCN3S(C)(=O)=O)cc1 (stereo not shown) [Compound I-008],5.9 nM
4,CC(=O)N1CCn2c(-c3ccnc(-c4ccc5c(cnn5C)c4)c3)cc3c(-c4ccc5c(c4C)NCCO5)c([C@H](OC(C)(C)C)C(=O)O)c(C)c1c32 [Compound I-027],1.7 nM
5,"Cc1c(-c2c(C(OC(C)(C)C)C(=O)O)c(C)c3c4c2c(C)cn4CCN3S(C)(=O)=O)ccc2c1CCCO2 (single isomer, unassigned) [Compound I-006]",14 nM
6,CC(=O)N1CCn2c(-c3ccnc(-c4ccc5c(cnn5C)c4)c3)cc3c(-c4cc(F)c5c(c4C)CCCO5)c([C@H](OC(C)(C)C)C(=O)O)c(C)c1c32 [Compound I-018],1.1 nM
7,Cc1c(-c2c([C@H](OC(C)(C)C)C(=O)O)c(C)c3c4c2cc(-c2ccnc(-c5ccc6c(cnn6C)c5)c2)n4CCN3S(C)(=O)=O)cc(F)c2c1CCCO2 [Compound I-014],1.3 nM
8,Cc1ccc(-c2c([C@H](OC(C)(C)C)C(=O)O)c(C)c3c4c2cc(-c2nnc(C)o2)n4CCN3C)cc1 [Compound I-041],4.6 nM
9,Cc1ccc(-c2c([C@H](OC(C)(C)C)C(=O)O)c(C)c3c4c2cc(-c2ccnc(-c5ccc6c(cnn6C)c5)c2)n4CCN3C)cc1 [Compound I-030],1.9 nM
10,Cc1ccc(-c2c([C@H](OC(C)(C)C)C(=O)O)c(C)c3c4c2cc(C(=O)N(C)C)n4CCN3C)cc1 [Compound I-040],67 nM
11,Cc1ccc(-c2c([C@H](OC(C)(C)C)C(=O)O)c(C)c3c4c2cc(-c2nnc(-c5ccc6c(cnn6C)c5)o2)n4CCN3C)cc1 [Compound I-037],0.4 nM
12,Cc1c(-c2c([C@H](OC(C)(C)C)C(=O)O)c(C)c3c4c2cc(-c2ccnc(-c5ccc6c(cnn6C)c5)c2)n4CCN3S(C)(=O)=O)ccc2c1NCCO2 [Compound I-022],4 nM
13,CC(=O)N1CCn2c(-c3ccnc(-c4ccc5c(cnn5C)c4)c3)cc3c(C4=CCC(C)(C)CC4)c([C@H](OC(C)(C)C)C(=O)O)c(C)c1c32 [Compound I-026],3.7 nM
14,CC(=O)N1CCn2c(-c3ccnc(-c4ccc5c(cnn5C)c4)c3)cc3c(-c4ccc(C)cc4)c([C@H](OC(C)(C)C)C(=O)O)c(C)c1c32 [Compound I-013],3.4 nM
15,Cc1ccc(-c2c([C@H](OC(C)(C)C)C(=O)O)c(C)c3c4c2cc(C(=O)N2CCC(c5ccccc5)CC2)n4CCN3S(C)(=O)=O)cc1 [Compound I-024],4.2 nM
16,Cc1ccc(-c2c([C@H](OC(C)(C)C)C(=O)O)c(C)c3c4c2cc(C(=O)NCc2ccccc2)n4CCN3S(C)(=O)=O)cc1 [Compound I-032],5.2 nM

row,Compound,EC50
1,Cc1ccc(-c2c([C@H](OC(C)(C)C)C(=O)O)c(C)c3c4c2cc(-c2ccnc(-c5ccc6c(cnn6C)c5)c2)n4CC(=O)N3C)cc1 [Compound I-020],3.6 nM
2,Cc1ccc(-c2c([C@H](OC(C)(C)C)C(=O)O)c(C)c3c4c2cc(C(=O)NCCC(C)(C)C)n4CCN3S(C)(=O)=O)cc1 [Compound I-031],2.9 nM
3,Cc1ccc(-c2c([C@H](OC(C)(C)C)C(=O)O)c(C)c3c4c2cc(-c2ccnc(-c5ccc6c(cnn6C)c5)c2)n4CS(=O)(=O)N3)cc1 [Compound I-025],89 nM
4,Cc1ccc(-c2c(C(OC(C)(C)C)C(=O)O)c(C)c3c4c2cc(-c2ccnc(Cl)c2)n4CCN3S(C)(=O)=O)cc1 (stereo not shown) [Compound I-010],16 nM
5,Cc1ccc(-c2c([C@H](OC(C)(C)C)C(=O)O)c(C)c3c4c2cc(-c2ccnc(-c5ccc6c(cnn6C)c5)c2)n4CCN3C(=O)CN(C)C)cc1 [Compound I-021],3.8 nM
6,Cc1ccc(-c2c(C(OC(C)(C)C)C(=O)O)c(C)c3c4c2cc(-c2ccnc(N5CCN(C(C)C)CC5)n2)n4CCN3S(C)(=O)=O)cc1 (stereo not shown) [Compound I-009],32 nM
7,CC(=O)N1CCn2c(-c3ccnc(-c4ccc5c(cnn5C)c4)c3)cc3c(-c4ccc(C)cc4)c(C(OC(C)(C)C)C(=O)O)c(C)c1c32 (stereo not shown) [Compound I-012],3.7 nM
8,Cc1ccc(-c2c([C@H](OC(C)(C)C)C(=O)O)c(C)c3c4c2cc(-c2ccnc(-c5ccc6c(cnn6C)c5)c2)n4CCN3S(C)(=O)=O)cc1 [Compound I-011],2.3 nM
9,CC(=O)N1CCn2c(-c3ccnc(-c4ccc5c(cnn5C)c4)c3)cc3c(-c4ccc(Cl)cc4)c([C@H](OC(C)(C)C)C(=O)O)c(C)c1c32 [Compound I-028],3.3 nM
10,Cc1ccc(-c2c([C@H](OC(C)(C)C)C(=O)O)c(C)c3c4c2cc(-c2ccnc(N5CCN(C(C)C)CC5)c2)n4CCN3S(C)(=O)=O)cc1 [Compound I-017],9.1 nM
11,Cc1ccc(-c2c([C@H](OC(C)(C)C)C(=O)O)c(C)c3c4c2cc(-c2ccnc(-c5ccc6c(cnn6C)c5)c2)n4CC(C)N3S(C)(=O)=O)cc1 (stereo partly shown) [Compound I-023],0.82 nM
12,Cc1ccc(-c2c([C@H](OC(C)(C)C)C(=O)O)c(C)c3c4c2cc(-c2ccnc(-c5ccc6c(cnn6C)c5)c2)n4CC(=O)N3)cc1 [Compound I-019],6 nM
13,Cc1ccc(-c2c([C@H](OC(C)(C)C)C(=O)O)c(C)c3c4c2cc(C(=O)NCCC(C)(C)C)n4CCN3C)cc1 [Compound I-035],5.2 nM
14,Cc1c([C@H](OC(C)(C)C)C(=O)O)c(-c2ccc(Cl)cc2)c2cc(-c3ccnc(-c4ccc5c(cnn5C)c4)c3)n3c2c1N(S(C)(=O)=O)CC3 [Compound I-016],3.9 nM
15,Cc1ccc(-c2c([C@H](OC(C)(C)C)C(=O)O)c(C)c3c4c2cc(C(N)=O)n4CCN3C)cc1 [Compound I-044],44 nM

# Tested on: not listed separately
# Experiment: Solubility Test
# Assay type: physicochemical
# Details: fassgf or other biorelevant, kinetic from dmso stock; 1% DMSO addition, artificial intestinal juice pH 6.8, 16 hours at 25° C.
# Method: The solubility of the compound of the present invention was determined under 1% DMSO addition conditions. A 10 mmol/L solution of the compound was prepared with DMSO, and 6 μL of the solution was added to 594 μL of an artificial intestinal juice (: water and a 118 mL solution of 0.2 mol/L NaOH reagent are added to 250 mL of 0.2 mol/L potassium dihydrogen phosphate reagent to reach 1000 mL) with a pH of 6.8. The mixture was left standing for 16 hours at 25° C., and the mixture was vacuum-filtered. The filtrate was two-fold diluted with methanol/water=1/1(v/v), and the compound concentration in the filtrate was measured with HPLC or LC/MS/MS by the absolute calibration method.
row,Compound,solubility at 16 h
1,Cc1ccc(-c2c([C@H](OC(C)(C)C)C(=O)O)c(C)c3c4c2cc(-c2ccnc(N5CCN(C(C)C)CC5)c2)n4CCN3S(C)(=O)=O)cc1 [Compound I-017],> 50 µM

# Tested on: not listed separately
# Experiment: BA Test
# Assay type: in vivo
# Details: plasma; oral vs intravenous administration, from AUCs, mouse or SD rats
# Method: Materials and methods for studies an oral absorption (1) Animal: mouse or SD rats are used. (2) Breeding conditions: mouse or SD rats were allowed to freely take solid feed and sterilized tap water. (3) Dose and grouping: orally or intravenously administered at a predetermined dose; grouping is as follows (Dose depends on the compound) Oral administration: 1 to 30 mg/kg (n=2 to 3) Intravenous administration: 0.5 to 10 mg/kg (n=2 to 3) (4) Preparation of dosing solution: for oral administration, in a solution or a suspension state; for intravenous administration, in a solubilized state. (5) Administration method: in oral administration, forcedly administer into ventriculus with oralprobe; in intravenous administration, administer from caudal vein with a needle-equipped syringe. (6) Evaluation items: blood is collected over time, and the plasma concentration of drug is measured by LC/MS/MS. (7) Statistical analysis: regarding the transition of the plasma concentration, the area under the plasma concentration-time curve (AUC) is calculated by non-linear least squares program WinNonlin (Registered trademark), and the bioavailability (BA) is calculated from the AUCs of the oral administration group and intravenous administration group. (Result) Compound No. I-30: 45.2%
row,Compound,bioavailability
1,Cc1ccc(-c2c([C@H](OC(C)(C)C)C(=O)O)c(C)c3c4c2cc(-c2ccnc(-c5ccc6c(cnn6C)c5)c2)n4CCN3C)cc1 [Compound I-030],45.2%

# Target: T1, human ether-a-go-go related gene (hERG) channel (Homo sapiens, UniProt Q12809)
# T1 construct: expressed in transfected cells; host or cells: HEK293
# Experiment: hERG Test
# Assay type: cell-based
# Details: compound concentration 5 μmol/L, HEK293 cells expressing hERG, patch clamp
# Excerpt: For the purpose of assessing risk of an electrocardiogram QT interval prolongation, effects on delayed rectifier K+ current (IKr), which plays an important role in the ventricular repolarization process of the compound of the present invention, was studied using HEK293 cells expressing human ether-a-go-go related gene (hERG) channel.
# After a cell was retained at a membrane potential of −80 mV by whole cell patch clamp method using an automated patch clamp system (PatchXpress 7000A, Axon Instruments Inc.), IKr induced by depolarization pulse stimulation at +40 mV for 2 seconds and, further, repolarization pulse stimulation at −50 mV for 2 seconds was recorded. […] From the recording IKr, an absolute value of the tail peak current was measured based on the current value at the resting membrane potential using an analysis software (DataXpress ver. 1, Molecular Devices Corporation). Further, the inhibition relative to the tail peak current before application of the test substance was calculated, and compared with the vehicle-applied group (0.1% dimethyl sulfoxide solution) to access influence of the test substance on IKr. […]
# T1 sequence (Q12809 whole entry): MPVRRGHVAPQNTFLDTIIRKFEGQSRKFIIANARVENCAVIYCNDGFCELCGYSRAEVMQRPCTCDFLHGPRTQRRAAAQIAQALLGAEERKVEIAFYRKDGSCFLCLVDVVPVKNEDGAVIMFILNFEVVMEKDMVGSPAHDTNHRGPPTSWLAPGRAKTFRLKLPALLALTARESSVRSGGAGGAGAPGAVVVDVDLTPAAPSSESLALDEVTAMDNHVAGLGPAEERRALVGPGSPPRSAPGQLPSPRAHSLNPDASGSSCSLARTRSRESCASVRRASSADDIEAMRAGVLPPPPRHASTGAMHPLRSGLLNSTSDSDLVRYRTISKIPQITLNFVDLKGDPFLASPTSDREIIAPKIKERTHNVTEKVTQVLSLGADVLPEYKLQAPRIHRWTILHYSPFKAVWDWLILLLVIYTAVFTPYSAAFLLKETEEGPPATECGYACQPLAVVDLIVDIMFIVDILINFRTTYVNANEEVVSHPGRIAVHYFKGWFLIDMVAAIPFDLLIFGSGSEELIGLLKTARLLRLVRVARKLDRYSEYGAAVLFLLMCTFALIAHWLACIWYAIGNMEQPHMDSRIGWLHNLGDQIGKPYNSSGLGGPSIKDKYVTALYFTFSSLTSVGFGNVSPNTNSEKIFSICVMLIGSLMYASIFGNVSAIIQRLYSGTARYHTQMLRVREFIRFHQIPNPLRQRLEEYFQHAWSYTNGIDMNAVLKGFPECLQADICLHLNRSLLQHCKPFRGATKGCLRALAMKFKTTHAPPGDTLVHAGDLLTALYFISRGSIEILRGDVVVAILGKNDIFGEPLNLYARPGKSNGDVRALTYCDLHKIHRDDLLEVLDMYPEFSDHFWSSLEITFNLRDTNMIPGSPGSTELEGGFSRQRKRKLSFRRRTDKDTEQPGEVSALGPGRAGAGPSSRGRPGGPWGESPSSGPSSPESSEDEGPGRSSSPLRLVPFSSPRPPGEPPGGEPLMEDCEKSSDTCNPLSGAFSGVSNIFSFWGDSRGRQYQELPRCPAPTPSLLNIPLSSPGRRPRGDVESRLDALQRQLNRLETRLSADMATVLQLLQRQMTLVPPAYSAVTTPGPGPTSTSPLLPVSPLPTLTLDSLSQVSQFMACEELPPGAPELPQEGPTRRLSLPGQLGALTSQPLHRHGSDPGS
row,Compound,inhibition ratio (IKr tail peak current)
1,Cc1ccc(-c2c([C@H](OC(C)(C)C)C(=O)O)c(C)c3c4c2cc(-c2ccnc(-c5ccc6c(cnn6C)c5)c2)n4CCN3C)cc1 [Compound I-030],11.7%
